How the values were obtained:
[1] = system: T1, hTRPC6-YFP; assay: Fluo-4 Ca2+ influx assay in HEK293 cells stably expressing TRPC6; assay type: cell-based, human; details: for effect on TRPC6: fluo-4 concentration response analysis
T1 construct: expressed in transfected cells

[2] = system: mTRPM3α2; assay: Selectivity profiling, fluo-4 [Ca2+]i response, TRPM3; assay type: cell-based, mouse; details: 100 µM
Description: (§1) Human embryonic kidney 293 (HEK293) cells were stably transfected with expression plasmids that encode hTRPC3-YFP, hTRPC6-YFP, hTRPC7-YFP, mTRPC4ß-YFP, rTRPV1-CFP, rTRPV2-YFP, rTRPV3-YFP, mTRPV4-YFP, or hTRPM2 as previously described. Cell lines were cultured in Earle’s minimum essential medium (MEM; Sigma, Munich, Germany), supplemented with 10% fetal calf serum (Gibco Thermo Fisher Scientific, Darmstadt, Germany), 2 mM L-glutamine, and required concentrations of geneticin in a range of 0.4–1 mg/mL. A HEK293mTRPC5-YFP cell line was maintained and induced as described before. […] For electrophysiological and single cell [Ca^2+]i imaging experiments, PC12 cells were plated onto 25 mm poly-L-lysine-coated glass coverslips and measured 24–48 h after seeding. […]
(§2) The primary compound screen and the generation of concentration response curves in HEK293 cells or in PC12 cells were performed by using a custom-made fluorescence plate imager built into a robotic liquid handling station equipped with a 96-tip multichannel head (Freedom Evo 150, Tecan, Männedorf, Switzerland) as described previously. […] Plates were mounted on the imager, and fluorescence signals were recorded with a cooled Zyla 5.5 camera (Andor, Belfast, UK) through a 515 nm long pass filter. […] When inhibitory potencies were evaluated, a second pipetting step with the respective reference agonist was performed. […]

[3] = system: T2, rTRPV2-YFP; assay: Selectivity profiling, fluo-4 [Ca2+]i response, TRPV2; assay type: cell-based, rat
T2 construct: expressed in transfected cells
Description: as §1, §2

[4] = system: T3, rTRPV3-YFP; assay: Selectivity profiling, fluo-4 [Ca2+]i response, TRPV3; assay type: cell-based, rat; details: 100 µM
T3 construct: expressed in transfected cells
Description: as §1, §2

[5] = system: T4, TRPC7; assay: Microfluorometric single-cell [Ca2+]i analysis, fura-2-loaded HEK cells stably expressing TRPC7; assay type: cell-based, human; details: 50 µM
T4 construct: expressed in transfected cells
Description: The microfluorometric single-cell [Ca^2+]i analysis was performed on an inverted epifluorescence microscope (Carl Zeiss, Jena, Germany) and calibrated as described. Cells were grown on 25 mm coverslips and loaded with 4 µM fura-2/AM (AAT Bioquest, Sunnyvale, CA, U.S.A.) in HBS containing 0.2% BSA for 30 min at 37 °C. […] Experiments were performed either in standard bath solution, containing 1 mM Ca^2+ (black lines and bars), or in a nominally Ca^2+-free HBS buffer, supplemented with 200 µM EGTA (grey lines and bars). Time courses of averaged responses (left), and statistical analysis of 6–11 independent imaging experiments with means and S.D. (right) are shown. Significant differences (p < 0.05, Student´s t-test with paired data: #, with unpaired data: *) are marked for the indicated comparisons; n.s.: difference is statistically not significant.

[6] = system: human protein kinase C (PKC) ε; assay: Plasma membrane translocation of PKCε-YFP fusion protein; assay type: cell-based; details: 50 µM

SMILES: C[C@@H]1CC[C@H]2[C@@H](C)C(=O)O[C@@H]3O[C@@]4(C)CC[C@@H]1[C@]32OO4 [artemisinin]
- effect on TRPC6 [1]: marked preference to activate TRPC3, but not the closely related TRPC6 channel
- effect on TRPC6 ([1]; listed as Artemisinin): rather inhibits TRPC6
- signal in counterscreen with TRPC6-expressing cells ([1]; primary screen, 20 µM): no signals
- [Ca2+]i response, TRPM3 [2]: none of the cell lines responded
- [Ca2+]i response, TRPV2 ([3]; 100 µM): none of the cell lines responded
- response of TRPV2-expressing cells to 2-APB after artemisinin ([3]; 100 µM artemisinin, 2-APB final concentration 300 µM): slightly increased response
- [Ca2+]i response, TRPV3 [4]: none of the cell lines responded
- [Ca2+]i signal in TRPC7-expressing cells in Ca2+-free bath ([5]; nominally Ca2+-free HBS with 200 µM EGTA): abolished
- [Ca2+]i response in TRPC7-overexpressing cells ([5]; standard bath 1 mM Ca2+): only a weak [Ca^2+]i signal
- plasma membrane translocation of PKCε-YFP [6]: did not induce a discernible plasma membrane translocation
